In general, MIC refers to the lowest concentration that inhibits growth of the organism. Usually IC50 stands for the concentration at which inhibition is half-maximal. A higher IC50 goes with lower potency.

The results in this text go back to ChEMBL document CHEMBL3396981, “Synthesis and in vitro biological evaluation of 2-(phenylcarbamoyl)phenyl 4-substituted benzoates” (Bioorg Med Chem, 2015).

In brackets after ≈: the same amount, converted by molar mass. Bridge positions count the residues as written; N and C are the ends. Square brackets hold non-standard residues; d marks the D form. Peptide text beside a SMILES is read from it. * marks the point of attachment. Ileψ(thiazoline)Cys = CC[C@H](C)[C@H](N)C1=N[C@H](C(=O)*)CS1; dOrn = NCCC[C@@H](N)C(=O)O A value given as a limit tells only on which side of the number the result lay.

Data set [1] in a line: Selectivity index, ratio of IC50 for human HepG2 cells to MIC for Staphylococci.
Data set [2] relates to Enterococcus sp. The experiment in a line: Antibacterial activity against Enterococcus sp. J 14365/08 after 24 hrs by broth microdilution method. The data set is classed as functional. Particulars: J 14365/08, 24 h. Background: Dilution methods test growth across graded concentrations, often in twofold steps.
The subject of data set [3] is Staphylococcus aureus. Kind of data set: Antibacterial activity against methicillin-resistant Staphylococcus aureus H 5996/08 after 24 hrs by broth microdilution method. The data set is classed as functional. The note with it: H 5996/08, 24 h.
Data set [4] relates to HepG2. The experiment in a line: Cytotoxicity against human HepG2 cells after 72 hrs by MTT assay. It counts as cell-based. Particulars: HepG2, 72 h. For orientation: Tetrazolium assays rely on reduction of a dye to a coloured formazan, in cell work by metabolically active cells.
Data set [5] deals with Staphylococcus aureus. The experiment in a line: Antibacterial activity against Staphylococcus aureus CCM 4516/08 after 24 hrs by broth microdilution method. It counts as functional. The note with it: CCM 4516/08, 24 h.
In data set [6] the test system is Staphylococcus epidermidis. Kind of data set: Antibacterial activity against Staphylococcus epidermidis H 6966/08 after 24 hrs by broth microdilution method. It counts as functional. Particulars: H 6966/08, 24 h.
For data set [7], the system named is Enterococcus sp. Kind of data set: Antibacterial activity against Enterococcus sp. J 14365/08 after 48 hrs by broth microdilution method. The note with it: J 14365/08, 48 h. It counts as functional.
Data set [8] has as its system Staphylococcus epidermidis. The experiment in a line: Antibacterial activity against Staphylococcus epidermidis H 6966/08 after 48 hrs by broth microdilution method. The note with it: H 6966/08, 48 h. The data set is classed as functional.
Data set [9] deals with Staphylococcus aureus. Kind of data set: Antibacterial activity against Staphylococcus aureus CCM 4516/08 after 48 hrs by broth microdilution method. The data set is classed as functional. The note with it: CCM 4516/08, 48 h.
Data set [10] concerns Staphylococcus aureus. Kind of data set: Antibacterial activity against methicillin-resistant Staphylococcus aureus H 5996/08 after 48 hrs by broth microdilution method. It counts as functional. The note with it: H 5996/08, 48 h.
Data set [11] concerns Trichosporon asahii. The experiment in a line: Antifungal activity against Trichosporon asahii 1188 after 48 hrs by broth microdilution method. It counts as functional. The note with it: Trichosporon asahii, 1188, 48 h.
Data set [12] deals with Mycobacterium avium. The experiment in a line: Antimycobacterial activity against INH,RIF,OFX,EMB-resistant Mycobacterium avium 330/88 after 21 days by microdilution method. It counts as functional. Particulars: 330/88, 504 h.
For data set [13], the system named is Mycobacterium avium. Kind of data set: Antimycobacterial activity against INH,RIF,OFX,EMB-resistant Mycobacterium avium 330/88 after 14 days by microdilution method. It counts as functional. Particulars: 330/88, 336 h.
Data set [14] relates to HepG2. Kind of data set: Cytostatic activity against human HepG2 cells after 72 hrs by MTT assay. Particulars: HepG2, 72 h. It counts as functional, cell-based.
Data set [15] has as its system Mycobacterium kansasii. The experiment in a line: Antimycobacterial activity against Mycobacterium kansasii 235/80 after 21 days by microdilution method. It counts as functional. Particulars: 235/80, 504 h.
In data set [16] the test system is Mycobacterium tuberculosis. The experiment in a line: Antimycobacterial activity against Mycobacterium tuberculosis H37Rv 331/88 after 21 days by microdilution method. The data set is classed as functional. Particulars: H37Rv 331/88, 504 h.
For data set [17], the system named is Mycobacterium kansasii. The experiment in a line: Antimycobacterial activity against Mycobacterium kansasii 235/80 after 7 days by microdilution method. It counts as functional. The note with it: 235/80, 168 h.
Data set [18] has as its system Mycobacterium kansasii. Kind of data set: Antimycobacterial activity against Mycobacterium kansasii 6509/96 after 14 days by microdilution method. The note with it: 6509/96, 336 h. It counts as functional.
Data set [19] deals with Mycobacterium kansasii. The experiment in a line: Antimycobacterial activity against Mycobacterium kansasii 6509/96 after 21 days by microdilution method. It counts as functional. Particulars: 6509/96, 504 h.
Data set [20] has as its system Mycobacterium kansasii. Kind of data set: Antimycobacterial activity against Mycobacterium kansasii 235/80 after 14 days by microdilution method. It counts as functional. Particulars: 235/80, 336 h.
Data set [21] has as its system Trichosporon asahii. Kind of data set: Antifungal activity against Trichosporon asahii 1188 after 24 hrs by broth microdilution method. It counts as functional. The note with it: Trichosporon asahii, 1188, 24 h.
Data set [22] in a line: Selectivity index, ratio of IC50 for human HepG2 cells to MIC for Mycobacterium tuberculosis. It counts as toxicity, cell-based. The note with it: read-out: Selectivity Index.
Data set [23] relates to Mycobacterium kansasii. The experiment in a line: Antimycobacterial activity against Mycobacterium kansasii 6509/96 after 7 days by microdilution method. The data set is classed as functional. The note with it: 6509/96, 168 h.
Data set [24] can be described thus: Selectivity index, ratio of IC50 for human HepG2 cells to MIC for atypical mycobacteria.
Data set [25] deals with Mycobacterium tuberculosis. The experiment in a line: Antimycobacterial activity against Mycobacterium tuberculosis H37Rv 331/88 after 14 days by microdilution method. It counts as functional. Particulars: H37Rv 331/88, 336 h.

As for `CC[C@H](C)[C@H](N)C1=N[C@H](C(=O)N[C@@H](CC(C)C)C(=O)N[C@H](CCC(=O)O)C(=O)N[C@H](C(=O)N[C@H]2CCCCNC(=O)[C@H](CC(N)=O)NC(=O)[C@@H](CC(=O)O)NC(=O)[C@H](Cc3cnc[nH]3)NC(=O)[C@@H](Cc3ccccc3)NC(=O)[C@H]([C@@H](C)CC)NC(=O)[C@@H](CCCN)NC2=O)[C@@H](C)CC)CS1` [BACITRACIN] ({Ileψ(thiazoline)Cys}-L[dE]IK[dOrn]I[dF]H[dD]N; lactam 4-C), the “Selectivity Index” value in data set [1] was found to be 8.1. For the same molecule, the minimum inhibitory concentration (MIC) in the data set on Enterococcus sp. [2] was 15.6 µM (≈ 22.2 µg/mL); in the data set with Staphylococcus aureus [3] it was 15.6 µM (≈ 22.2 µg/mL); in the data set on Staphylococcus aureus [5], 7.81 µM (≈ 11.1 µg/mL); in data set [6], 15.6 µM (≈ 22.2 µg/mL); against Enterococcus sp. [7], 62.5 µM (≈ 88.9 µg/mL); in [8], 31.2 µM (≈ 44.5 µg/mL). Also, the MIC with Staphylococcus aureus [9] and in the data set with Staphylococcus aureus [10] was 15.6 µM (≈ 22.2 µg/mL) in each case. In the data set on HepG2 [4], this molecule showed an IC50 of 255 µM.
In the case of `Cc1ccc(C(=O)Oc2ccc(Br)cc2C(=O)Nc2ccc(C(F)(F)F)cc2)cc1`, the MIC is above 125 µM against Enterococcus sp. [2]; above 125 µM against Trichosporon asahii [11]; above 125 µM in the data set on Staphylococcus aureus [3]; 8 µM (≈ 3.83 µg/mL) against Mycobacterium avium [12]; 4 µM (≈ 1.91 µg/mL) in the data set on Mycobacterium avium [13]; 2 µM (≈ 0.957 µg/mL) against Mycobacterium kansasii [15]. The minimum inhibitory concentration (MIC) is 1 µM (≈ 0.478 µg/mL) in data set [16]; 1 µM (≈ 0.478 µg/mL) in the data set on Mycobacterium kansasii [17]; above 125 µM in the data set on Staphylococcus aureus [5]; above 125 µM in data set [6]; above 125 µM against Enterococcus sp. [7]; 2 µM (≈ 0.957 µg/mL) in the data set with Mycobacterium kansasii [18]. The MIC is 4 µM (≈ 1.91 µg/mL) with Mycobacterium kansasii [19]; 2 µM (≈ 0.957 µg/mL) in the data set on Mycobacterium kansasii [20]; above 125 µM in the data set on Trichosporon asahii [21]; above 125 µM in data set [8]; above 125 µM against Staphylococcus aureus [9]; above 125 µM against Staphylococcus aureus [10]. Besides, the MIC was 2 µM (≈ 0.957 µg/mL) in the data set on Mycobacterium kansasii [23] and 1 µM (≈ 0.478 µg/mL) in data set [25]. Besides, the IC50 was above 50 µM in the data set on HepG2 [4] and 26.8 µM in the data set on HepG2 [14]. Besides, in data set [22], the selectivity ratio is above 50. Moreover, in [24], the “Selectivity Index” value is given as above 6.25.
Turning to `Cc1ccc(C(=O)Oc2ccc(Cl)cc2C(=O)Nc2ccc(C(F)(F)F)cc2)cc1`, the MIC in the data set on Enterococcus sp. [2] was above 250 µM; against Trichosporon asahii [11], above 250 µM; in the data set with Staphylococcus aureus [3], above 250 µM; against Mycobacterium avium [12] it was 4 µM (≈ 1.74 µg/mL); in the data set on Mycobacterium avium [13], 4 µM (≈ 1.74 µg/mL); against Mycobacterium kansasii [15], 2 µM (≈ 0.868 µg/mL). Besides, the MIC was 0.5 µM (≈ 0.217 µg/mL) in [16]; 1 µM (≈ 0.434 µg/mL) in the data set with Mycobacterium kansasii [17]; above 250 µM against Staphylococcus aureus [5]; above 250 µM in data set [6]; above 250 µM in the data set on Enterococcus sp. [7]; 2 µM (≈ 0.868 µg/mL) against Mycobacterium kansasii [18]. Further, the MIC against Mycobacterium kansasii [19] was 2 µM (≈ 0.868 µg/mL); against Mycobacterium kansasii [20], 1 µM (≈ 0.434 µg/mL); in the data set on Trichosporon asahii [21] it was above 250 µM; in data set [8], above 250 µM; in the data set with Staphylococcus aureus [9] it was above 250 µM; with Staphylococcus aureus [10] it was above 250 µM. Further, the MIC was found to be 1 µM (≈ 0.434 µg/mL) in the data set with Mycobacterium kansasii [23] and 0.5 µM (≈ 0.217 µg/mL) in data set [25]. For the same molecule, the IC50 in the data set with HepG2 [4] is above 50 µM; in the data set on HepG2 [14] it was 6.9 µM. In addition, the selectivity ratio in data set [22] was above 100. Besides, the “Selectivity Index” value in data set [24] is above 12.5.
